Reference: patent US20260207602A1, “EGFR INHIBITORS” (Blueprint Medicines Corporation, priority 2022, published 2026)

Key:
EGFR (d746-750) = biological target: T1, EGFR (d746-750) (Homo sapiens, UniProt P00533, DEL746-750); experiment: Biochemical EGFR inhibition assay (Caliper mobility shift), EGFR (d746-750); conditions: biochemical Caliper mobility shift assay, EGFR Exon 19-del enzyme; read-out: Enz EGFR Exon 19-del IC50
T1 construct: purchased SignalChem E10-122JG
Summary of the method: (§1)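 Peptide phosphorylation by the mutant enzyme is followed at 25 °C with either 1.0 mM ATP or ATP at Km, in HEPES pH 7.5 containing 0.015% Brij-35 and 1.0% DMSO. After 10–20% substrate turnover, 35 mM EDTA ends the reaction and mobility shift quantifies product.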

[1] = biological target: intracellular phosphorylation of EGFR (Tyr1068) in PC-9 cells (Homo sapiens, UniProt P00533, DEL746-750); experiment: PC-9 pEGFR AlphaLISA assay; assay type: cell-based; conditions: 4 hours incubation, read-out: Phos EGFR PC9 IC50
intracellular phosphorylation of EGFR (Tyr1068) in PC-9 cells, sequence (P00533 with tags, fused parts or gaps DEL746-750): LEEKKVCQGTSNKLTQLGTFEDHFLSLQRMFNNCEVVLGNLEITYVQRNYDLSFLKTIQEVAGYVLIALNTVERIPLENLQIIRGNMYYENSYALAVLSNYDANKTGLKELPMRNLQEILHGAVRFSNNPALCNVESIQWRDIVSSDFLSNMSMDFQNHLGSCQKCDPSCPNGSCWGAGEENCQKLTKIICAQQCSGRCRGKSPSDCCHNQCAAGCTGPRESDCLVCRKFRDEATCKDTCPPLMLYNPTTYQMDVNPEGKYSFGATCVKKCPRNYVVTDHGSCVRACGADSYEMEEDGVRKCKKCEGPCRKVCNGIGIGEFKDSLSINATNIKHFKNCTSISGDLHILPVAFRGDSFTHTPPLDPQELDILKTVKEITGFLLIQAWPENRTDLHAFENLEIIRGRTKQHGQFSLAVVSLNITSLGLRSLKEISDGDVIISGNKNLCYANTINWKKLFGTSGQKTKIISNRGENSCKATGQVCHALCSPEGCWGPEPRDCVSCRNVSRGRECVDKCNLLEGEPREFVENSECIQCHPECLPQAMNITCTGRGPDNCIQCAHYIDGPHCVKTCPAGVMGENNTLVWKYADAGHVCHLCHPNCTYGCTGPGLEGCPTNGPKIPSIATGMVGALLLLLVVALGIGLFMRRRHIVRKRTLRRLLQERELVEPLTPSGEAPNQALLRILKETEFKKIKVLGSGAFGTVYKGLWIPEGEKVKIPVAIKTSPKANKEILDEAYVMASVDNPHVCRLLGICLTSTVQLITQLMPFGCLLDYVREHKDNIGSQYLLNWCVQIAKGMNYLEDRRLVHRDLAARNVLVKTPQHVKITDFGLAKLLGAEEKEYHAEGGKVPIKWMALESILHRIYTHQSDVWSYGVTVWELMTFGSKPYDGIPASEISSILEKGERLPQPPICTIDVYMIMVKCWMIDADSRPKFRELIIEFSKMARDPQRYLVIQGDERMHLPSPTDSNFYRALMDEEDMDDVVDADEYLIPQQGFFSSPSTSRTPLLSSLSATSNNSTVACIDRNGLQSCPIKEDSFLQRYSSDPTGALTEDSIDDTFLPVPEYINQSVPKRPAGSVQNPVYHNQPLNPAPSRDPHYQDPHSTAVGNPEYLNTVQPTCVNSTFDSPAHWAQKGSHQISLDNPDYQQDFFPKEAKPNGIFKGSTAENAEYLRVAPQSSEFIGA
Summary of the method: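 PC-9 cells (EGFR del746-750) in phenol-free DMEM/10% FBS, adhered overnight, then exposed to 10-point 4-fold compound dilutions for 4 h at 37 °C. Lysates assayed for pEGFR Tyr1068 by AlphaLISA SureFire Ultra; IC50 from percent pEGFR inhibition vs log concentration.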

EGFR L858R = biological target: T2, EGFR L858R (Homo sapiens, UniProt P00533, L858R); experiment: Biochemical EGFR inhibition assay (Caliper mobility shift), EGFR L858R; conditions: biochemical Caliper mobility shift assay, EGFR L858R enzyme; read-out: Enz EGFR L858R IC50
T2 construct: purchased SignalChem E10-122BG
T2 sequence (P00533 25-1210 L858R): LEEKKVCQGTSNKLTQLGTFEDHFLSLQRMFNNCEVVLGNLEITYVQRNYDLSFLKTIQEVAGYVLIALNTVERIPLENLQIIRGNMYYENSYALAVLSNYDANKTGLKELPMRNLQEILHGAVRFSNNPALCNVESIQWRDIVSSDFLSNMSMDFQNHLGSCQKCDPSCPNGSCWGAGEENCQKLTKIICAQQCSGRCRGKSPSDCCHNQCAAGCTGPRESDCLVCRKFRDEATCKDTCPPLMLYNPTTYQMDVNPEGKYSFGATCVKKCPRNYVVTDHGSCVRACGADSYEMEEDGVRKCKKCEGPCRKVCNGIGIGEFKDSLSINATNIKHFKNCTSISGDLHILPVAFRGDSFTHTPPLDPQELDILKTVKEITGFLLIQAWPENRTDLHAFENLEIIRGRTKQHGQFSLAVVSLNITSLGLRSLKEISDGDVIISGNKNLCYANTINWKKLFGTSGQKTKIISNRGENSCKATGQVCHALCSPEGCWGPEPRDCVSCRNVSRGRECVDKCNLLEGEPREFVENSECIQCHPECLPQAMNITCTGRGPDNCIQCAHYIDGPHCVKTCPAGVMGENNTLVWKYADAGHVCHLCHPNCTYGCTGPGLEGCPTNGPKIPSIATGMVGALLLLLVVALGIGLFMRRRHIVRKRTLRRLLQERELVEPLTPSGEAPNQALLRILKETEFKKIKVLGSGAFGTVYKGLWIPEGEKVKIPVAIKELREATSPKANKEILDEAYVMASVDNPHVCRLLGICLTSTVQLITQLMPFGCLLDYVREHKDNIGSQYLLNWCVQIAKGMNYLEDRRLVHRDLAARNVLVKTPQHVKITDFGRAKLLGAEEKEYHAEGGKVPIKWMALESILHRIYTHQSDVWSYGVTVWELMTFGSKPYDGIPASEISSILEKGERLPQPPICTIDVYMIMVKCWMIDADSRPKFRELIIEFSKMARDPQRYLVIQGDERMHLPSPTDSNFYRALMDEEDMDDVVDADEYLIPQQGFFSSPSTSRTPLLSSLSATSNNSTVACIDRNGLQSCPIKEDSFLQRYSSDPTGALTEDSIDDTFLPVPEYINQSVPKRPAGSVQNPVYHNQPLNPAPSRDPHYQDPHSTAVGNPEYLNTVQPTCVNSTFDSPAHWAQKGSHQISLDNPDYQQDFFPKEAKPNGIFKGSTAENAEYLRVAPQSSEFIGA
Summary of the method: as §1

T1 sequence (P00533 with tags, fused parts or gaps DEL746-750 limits assumed): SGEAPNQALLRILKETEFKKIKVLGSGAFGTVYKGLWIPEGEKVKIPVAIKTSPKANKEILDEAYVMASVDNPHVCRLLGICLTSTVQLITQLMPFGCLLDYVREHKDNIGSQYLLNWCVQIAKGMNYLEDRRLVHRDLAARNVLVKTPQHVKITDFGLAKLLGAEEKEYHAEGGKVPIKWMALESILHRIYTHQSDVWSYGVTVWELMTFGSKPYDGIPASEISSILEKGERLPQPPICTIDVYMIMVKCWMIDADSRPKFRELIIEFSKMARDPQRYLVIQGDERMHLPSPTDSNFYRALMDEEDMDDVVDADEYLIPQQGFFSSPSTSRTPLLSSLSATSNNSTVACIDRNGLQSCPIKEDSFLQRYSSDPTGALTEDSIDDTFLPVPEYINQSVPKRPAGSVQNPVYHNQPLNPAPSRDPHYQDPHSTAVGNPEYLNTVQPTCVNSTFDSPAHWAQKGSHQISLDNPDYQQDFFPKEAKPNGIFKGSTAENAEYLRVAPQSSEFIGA

SMILES	IC50 (EGFR (d746-750)) [nM]	IC50 [1] [nM]	IC50 (EGFR L858R) [nM]
CCC(=O)N1CCC(Nc2cc3c(Nc4ccc5ncsc5c4)ncnc3cc2-c2ccn(C)n2)CC1 [Example 257, 1-(4-((4-(benzo[d]thiazol-6-ylamino)-7-(1-methyl-1H-pyrazol-3-yl)quinazolin-6-yl)amino)piperidin-1-yl)propan-1-one]	≤ 10	≤ 10	≤ 10
CN1CCC(Nc2cc3c(Nc4ccc5ncsc5c4)ncnc3cc2-c2ccn(C)n2)CC1 [Example 258, N4-(benzo[d]thiazol-6-yl)-7-(1-methyl-1H-pyrazol-3-yl)-N6-(1-methylpiperidin-4-yl)quinazoline-4,6-diamine]	≤ 10	≤ 10	≤ 10
Cn1cc(-c2cc(OC3CC3)c3c(Nc4ccc5ncsc5c4)ncnc3c2)cn1 [Example 259, N-(5-cyclopropoxy-7-(1-methyl-1H-pyrazol-4-yl)quinazolin-4-yl)benzo[d]thiazol-6-amine]	≤ 10	≤ 10	≤ 10
CCC(=O)N1CCC(Oc2cc3c(Nc4ccc5ncsc5c4)ncnc3cc2OC)CC1 [Example 260, 1-(4-((4-(benzo[d]thiazol-6-ylamino)-7-methoxyquinazolin-6-yl)oxy)piperidin-1-yl)propan-1-one]	≤ 10	10.1 to 50	≤ 10
Cn1cc(-c2cc3ncnc(Nc4ccc5ncsc5c4F)c3cc2OC2CCOC2)cn1 (stereo not drawn) [Example 261, 7-fluoro-N-(7-(1-methyl-1H-pyrazol-4-yl)-6-((tetrahydrofuran-3-yl)oxy)quinazolin-4-yl)benzo[d]thiazol-6-amine]	≤ 10	≤ 10	≤ 10
Cn1cc(-c2cc3ncnc(Nc4ccc5ncsc5c4F)c3cc2OC2CCOCC2)cn1 [Example 262, 7-fluoro-N-(7-(1-methyl-1H-pyrazol-4-yl)-6-((tetrahydro-2H-pyran-4-yl)oxy)quinazolin-4-yl)benzo[d]thiazol-6-amine]	≤ 10	≤ 10	≤ 10
COc1cc2c(Nc3ccc4ncsc4c3)ncnc2cc1-c1cnn(C)c1 [Example 263, N-(6-methoxy-7-(1-methyl-1H-pyrazol-4-yl)quinazolin-4-yl)benzo[d]thiazol-6-amine]	≤ 10	≤ 10	≤ 10
COc1cc2c(Nc3ccc4ncsc4c3F)ncnc2cc1-c1cn(C)nc1OC [Example 264, 7-fluoro-N-(6-methoxy-7-(3-methoxy-1-methyl-1H-pyrazol-4-yl)quinazolin-4-yl)benzo[d]thiazol-6-amine]	≤ 10	10.1 to 50	≤ 10
Cn1ccc(-c2cc3ncnc(Nc4ccc5ncsc5c4)c3cc2NC2CCNCC2)n1 [Example 266, N4-(benzo[d]thiazol-6-yl)-7-(1-methyl-1H-pyrazol-3-yl)-N6-(piperidin-4-yl)quinazoline-4,6-diamine]	≤ 10	10.1 to 50	≤ 10
Cn1cc(-c2cc(OCC(=O)N3CC4(COC4)C3)c3c(Nc4ccc5ncsc5c4)ncnc3c2)cn1 [Example 270, 2-((4-(benzo[d]thiazol-6-ylamino)-7-(1-methyl-1H-pyrazol-4-yl)quinazolin-5-yl)oxy)-1-(2-oxa-6-azaspiro[3.3]heptan-6-yl)ethan-1-one]	≤ 10	10.1 to 50	≤ 10
Cn1cc(-c2cc(OCC(=O)N3CCC3)c3c(Nc4ccc5ncsc5c4)ncnc3c2)cn1 [Example 271, 1-(azetidin-1-yl)-2-((4-(benzo[d]thiazol-6-ylamino)-7-(1-methyl-1H-pyrazol-4-yl)quinazolin-5-yl)oxy)ethan-1-one]	≤ 10	10.1 to 50	≤ 10
Cn1cc(-c2cc(OCC(=O)N3CCCCC3)c3c(Nc4ccc5ncsc5c4)ncnc3c2)cn1 [Example 272, 2-((4-(benzo[d]thiazol-6-ylamino)-7-(1-methyl-1H-pyrazol-4-yl)quinazolin-5-yl)oxy)-1-(piperidin-1-yl)ethan-1-one]	≤ 10	≤ 10	≤ 10
Cn1cc(-c2cc(OCC(=O)N3CCOCC3)c3c(Nc4ccc5ncsc5c4)ncnc3c2)cn1 [Example 273, 2-((4-(benzo[d]thiazol-6-ylamino)-7-(1-methyl-1H-pyrazol-4-yl)quinazolin-5-yl)oxy)-1-morpholinoethan-1-one]	≤ 10	≤ 10	≤ 10
CN(C)C(=O)COc1cc(-c2cnn(C)c2)cc2ncnc(Nc3ccc4ncsc4c3F)c12 [Example 274, 2-((4-((7-fluorobenzo[d]thiazol-6-yl)amino)-7-(1-methyl-1H-pyrazol-4-yl)quinazolin-5-yl)oxy)-N,N-dimethylacetamide]	≤ 10	≤ 10	≤ 10
CN1CCN(C(=O)COc2cc(-c3cnn(C)c3)cc3ncnc(Nc4ccc5ncsc5c4F)c23)CC1 [Example 275, 2-((4-((7-fluorobenzo[d]thiazol-6-yl)amino)-7-(1-methyl-1H-pyrazol-4-yl)quinazolin-5-yl)oxy)-1-(4-methylpiperazin-1-yl)ethan-1-one]	≤ 10	10.1 to 50	≤ 10
Cn1cc(-c2cc(OCC(=O)N3CCOCC3)c3c(Nc4ccc5ncsc5c4F)ncnc3c2)cn1 [Example 276, 2-((4-((7-fluorobenzo[d]thiazol-6-yl)amino)-7-(1-methyl-1H-pyrazol-4-yl)quinazolin-5-yl)oxy)-1-morpholinoethan-1-one]	≤ 10	≤ 10	≤ 10
Cn1cc(-c2cc(OCC(=O)N3CC4(COC4)C3)c3c(Nc4ccc5ncsc5c4F)ncnc3c2)cn1 [Example 277, 2-((4-((7-fluorobenzo[d]thiazol-6-yl)amino)-7-(1-methyl-1H-pyrazol-4-yl)quinazolin-5-yl)oxy)-1-(2-oxa-6-azaspiro[3.3]heptan-6-yl)ethan-1-one]	≤ 10	≤ 10	≤ 10
CC(Oc1cc(-c2cnn(C)c2)cc2ncnc(Nc3ccc4ncsc4c3F)c12)C(=O)N(C)C (stereo not drawn) [Example 278, 2-((4-((7-fluorobenzo[d]thiazol-6-yl)amino)-7-(1-methyl-1H-pyrazol-4-yl)quinazolin-5-yl)oxy)-N,N-dimethylpropanamide]	≤ 10	≤ 10	≤ 10

More lines, now with the values ahead:

IC50 (EGFR (d746-750)) [nM]	IC50 [1] [nM]	IC50 (EGFR L858R) [nM]	SMILES
≤ 10	10.1 to 50	10.1 to 50	CN1CCC[C@H](Oc2cc(-c3cn(C)nc3OC(F)F)cc3ncnc(Nc4ccc5ncsc5c4)c23)C1 [Example 248, (S)-N-(7-(3-(difluoromethoxy)-1-methyl-1H-pyrazol-4-yl)-5-((1-methylpiperidin-3-yl)oxy)quinazolin-4-yl)benzo[d]thiazol-6-amine]
≤ 10	10.1 to 50	≤ 10	CN1CCC[C@H](Oc2cc(-c3cn(C)n(C(F)F)c3=O)cc3ncnc(Nc4ccc5ncsc5c4)c23)C1 [Example 249, (S)-4-(4-(benzo[d]thiazol-6-ylamino)-5-((1-methylpiperidin-3-yl)oxy)quinazolin-7-yl)-2-(difluoromethyl)-1-methyl-1,2-dihydro-3H-pyrazol-3-one]
≤ 10	10.1 to 50	≤ 10	Cn1cc(-c2cc(OC3COC3)c3c(Nc4ccc5ncsc5c4)ncnc3c2)c(OC(F)F)n1 [Example 250, N-(7-(3-(difluoromethoxy)-1-methyl-1H-pyrazol-4-yl)-5-(oxetan-3-yloxy)quinazolin-4-yl)benzo[d]thiazol-6-amine]
≤ 10	10.1 to 50	≤ 10	COc1cc2ncnc(Nc3ccc4ncsc4c3)c2cc1NC(=O)N1C[C@H]2CCN(C)[C@H]2C1 [Example 251, (3aR,6aR)-N-(4-(benzo[d]thiazol-6-ylamino)-7-methoxyquinazolin-6-yl)-1-methylhexahydropyrrolo[3,4-b]pyrrole-5(1H)-carboxamide]
≤ 10	≤ 10	≤ 10	CN1CC[C@@H]2CN(C(=O)Nc3cc4c(Nc5ccc6ncsc6c5)ncnc4cc3-c3ccn(C)n3)C[C@@H]21 [Example 252, (3aR,6aR)-N-(4-(benzo[d]thiazol-6-ylamino)-7-(1-methyl-1H-pyrazol-3-yl)quinazolin-6-yl)-1-methylhexahydropyrrolo[3,4-b]pyrrole-5(1H)-carboxamide]
≤ 10	≤ 10	≤ 10	CCN1CCN(C(=O)Nc2cc3c(Nc4ccc5ncsc5c4)ncnc3cc2-c2ccn(C)n2)CC1 [Example 253, N-(4-(benzo[d]thiazol-6-ylamino)-7-(1-methyl-1H-pyrazol-3-yl)quinazolin-6-yl)-4-ethylpiperazine-1-carboxamide]
≤ 10	10.1 to 50	≤ 10	CC(C)Oc1cc(-c2cnn(C)c2)cc2ncnc(Nc3ccc4scnc4c3)c12 [Example 254, N-(5-isopropoxy-7-(1-methyl-1H-pyrazol-4-yl)quinazolin-4-yl)benzo[d]thiazol-5-amine]
≤ 10	≤ 10	≤ 10	C[C@@H]1CN(C)CCN1C(=O)Nc1cc2c(Nc3ccc4ncsc4c3)ncnc2cc1-c1ccn(C)n1 [Example 255, (R)-N-(4-(benzo[d]thiazol-6-ylamino)-7-(1-methyl-1H-pyrazol-3-yl)quinazolin-6-yl)-2,4-dimethylpiperazine-1-carboxamide]
